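96-well plates; 48 h exposure; 5 concentrations. Endpoints by linear interpolation between flanking doses. Not reached: highest tested concentration assigned. GI50 = concentration required for 50% inhibition of growth. TGI: concentration producing complete growth inhibition.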
Experiments:
Assay in all cases: DTP human tumour cell line panel, 48 h
[1] = tested on: CCRF-CEM leukemia
[2] = tested on: COLO 205 colon
[3] = tested on: K-562 leukemia
[4] = tested on: KM12 colon
[5] = tested on: NCI-H522 lung
[6] = tested on: RPMI-8226 leukemia
[7] = tested on: SK-OV-3 ovarian
[8] = tested on: TK-10 renal
[9] = tested on: UACC-62 melanoma
[10] = tested on: UO-31 renal

With `COc1cc[nH]c1/C=C1\C(=O)Nc2ccc([N+](=O)[O-])c(N3CC[C@@H](O)C3)c21` the GI50 [1] was 0.0855 µM, the TGI [1] was 1.51 µM and the GI50 [2] was 0.135 µM. It also gave a TGI [2] of 0.688 µM, a GI50 [3] of 0.577 µM and a TGI [3] of 7.57 µM. For the same compound, the GI50 [4] was 0.101 µM, the TGI [4] was 2.22 µM and the GI50 [5] was 0.393 µM. The TGI [5] was 1.23 µM, the GI50 [6] was 0.296 µM and the TGI [6] was 1.14 µM. It also gave a GI50 [7] of 0.631 µM, a TGI [7] of 8.16 µM and a GI50 [8] of 0.512 µM. The TGI [8] was 1.61 µM, the GI50 [9] was 0.338 µM and the TGI [9] was 0.762 µM. It also gave a GI50 [10] of 0.267 µM and a TGI [10] of 3.44 µM.
For `NC(C(=O)O)c1ccc(C(=O)O)cc1` (configuration not stated), the TGI [1] was > 100 µM, the TGI [2] was > 100 µM and the TGI [3] was > 100 µM. The TGI [4] was > 100 µM, the TGI [5] was > 100 µM and the TGI [6] was > 100 µM. The TGI [7] was > 100 µM, the TGI [8] was > 100 µM and the TGI [9] was > 100 µM. The TGI [10] was > 100 µM.
With `O=C1OC(=O)C2C1C1C(c3ccccc3)=C(c3ccccc3)C2(O)C2C(=O)OC(=O)C12` (configuration not stated) the TGI [1] was > 100 µM, the TGI [2] was > 100 µM and the TGI [3] was > 100 µM. For the same compound, the TGI [4] was > 100 µM, the TGI [5] was > 100 µM and the TGI [6] was > 100 µM. For the same compound, the TGI [7] was > 100 µM, the TGI [8] was > 100 µM and the TGI [9] was > 100 µM. The TGI [10] was > 100 µM.
In the case of `CCC(=O)Oc1ccc(/C=N/NC(N)=S)nc1`, the GI50 [1] is reported as 2.81 µM, the TGI [1] is reported as > 100 µM and the GI50 [2] is reported as 27.5 µM. For the same compound, the TGI [2] was > 100 µM, the GI50 [3] was 5.05 µM and the TGI [3] was > 100 µM. For the same compound, the GI50 [4] was 4.69 µM, the TGI [4] was > 100 µM and the GI50 [5] was 4.58 µM. The TGI [5] was 76.5 µM, the GI50 [6] was 28.5 µM and the TGI [6] was > 100 µM. For the same compound, the GI50 [7] was 29.7 µM, the TGI [7] was > 100 µM and the GI50 [8] was 49 µM. The TGI [8] was > 100 µM, the GI50 [9] was 3.43 µM and the TGI [9] was > 100 µM. It also gave a GI50 [10] of 3.48 µM and a TGI [10] of 22.8 µM.
With `O=[N+]([O-])c1ccc2nc(=S)[nH]n2c1` the TGI [1] was > 100 µM, the TGI [2] was > 100 µM and the TGI [3] was > 100 µM. For the same compound, the TGI [4] was > 100 µM, the TGI [5] was > 100 µM and the TGI [6] was > 100 µM. The TGI [7] was > 100 µM, the TGI [8] was > 100 µM and the TGI [9] was > 100 µM. For the same compound, the TGI [10] was > 100 µM.
With `N#CC1([N+](=O)[O-])C=C1c1ccccc1` (configuration not stated) the TGI [1] was 72.2 µM, the TGI [2] was > 100 µM and the TGI [3] was 71.5 µM. The TGI [4] was > 100 µM, the TGI [5] was 56.6 µM and the TGI [6] was 49.5 µM. For the same compound, the TGI [7] was > 100 µM, the TGI [8] was > 100 µM and the TGI [9] was 66.3 µM. The TGI [10] was > 100 µM.
With `COc1ccc(-c2cc(=O)c3cccnc3[nH]2)cc1` the TGI [1] was 85.6 µM, the TGI [2] was 52.5 µM and the TGI [3] was 88.6 µM. The TGI [4] was > 100 µM, the TGI [5] was > 100 µM and the TGI [6] was > 100 µM. For the same compound, the TGI [7] was > 100 µM, the TGI [8] was > 100 µM and the TGI [9] was 91.2 µM. For the same compound, the TGI [10] was > 100 µM.
In the case of `O=C1C=C(OCC=C(Cl)Cl)C(=O)c2ccccc21`, the GI50 [1] is reported as 3.03 µM, the TGI [1] is reported as > 19.7 µM and the GI50 [2] is reported as 4.39 µM. The TGI [2] was 12.1 µM, the GI50 [3] was 1.01 µM and the TGI [3] was > 23 µM. For the same compound, the GI50 [4] was 8.41 µM, the TGI [4] was > 90.7 µM and the GI50 [5] was 0.888 µM. For the same compound, the TGI [5] was 6.24 µM, the GI50 [6] was 0.955 µM and the TGI [6] was > 20.8 µM. For the same compound, the GI50 [7] was > 100 µM, the TGI [7] was > 100 µM and the GI50 [8] was 61.2 µM. For the same compound, the TGI [8] was > 100 µM, the GI50 [9] was 2.51 µM and the TGI [9] was 7.64 µM. For the same compound, the GI50 [10] was 3.15 µM and the TGI [10] was 15.9 µM.
In the case of `CC(=O)Nc1ccccc1S(=O)c1ccccc1` (configuration not stated), the TGI [1] is reported as > 100 µM, the TGI [2] is reported as > 100 µM and the TGI [3] is reported as > 100 µM. For the same compound, the TGI [4] was > 100 µM, the TGI [5] was > 100 µM and the TGI [6] was > 100 µM. For the same compound, the TGI [7] was > 100 µM, the TGI [8] was > 100 µM and the TGI [9] was > 100 µM. For the same compound, the TGI [10] was > 100 µM.
For `CC(=O)CC(=O)ON(C)C(=O)Cc1ccccc1`, the TGI [1] was > 100 µM, the TGI [2] was > 100 µM and the TGI [3] was > 100 µM. For the same compound, the TGI [4] was > 100 µM, the TGI [5] was > 100 µM and the TGI [6] was > 100 µM. The TGI [7] was > 100 µM, the TGI [8] was > 100 µM and the TGI [9] was > 100 µM. For the same compound, the TGI [10] was > 100 µM.
With `CC(=O)Nc1cc(CN2CCCCC2)c(O)c2ncccc12` the TGI [1] was > 100 µM, the TGI [2] was > 100 µM and the TGI [3] was > 100 µM. The TGI [4] was > 100 µM, the TGI [5] was > 100 µM and the TGI [6] was 51.1 µM. For the same compound, the TGI [7] was > 100 µM, the TGI [8] was > 100 µM and the TGI [9] was 46.3 µM. The TGI [10] was 46.8 µM.
`O=C(N/N=C/c1cccc(O)c1)c1ccc(C(F)(F)F)nc1Nc1cccc(C(F)(F)F)c1` gave a GI50 [1] of 0.258 µM, a TGI [1] of 1.08 µM and a GI50 [2] of 1.44 µM. For the same compound, the TGI [2] was 2.94 µM, the GI50 [3] was 1.19 µM and the TGI [3] was 2.69 µM. The GI50 [4] was 1.69 µM, the TGI [4] was 5.22 µM and the GI50 [5] was 1.67 µM. It also gave a TGI [5] of 6.72 µM, a GI50 [6] of 1.32 µM and a TGI [6] of 3.99 µM. The GI50 [7] was 1.77 µM, the TGI [7] was 6.02 µM and the GI50 [8] was 1.44 µM. The TGI [8] was 4.64 µM, the GI50 [9] was 1.81 µM and the TGI [9] was 4.12 µM. For the same compound, the GI50 [10] was 1.59 µM and the TGI [10] was 5.08 µM.
For `ClCCCN1CCCCC1CCl` (configuration not stated), the TGI [1] was > 100 µM, the TGI [2] was > 100 µM and the TGI [3] was > 100 µM. For the same compound, the TGI [4] was > 100 µM, the TGI [5] was > 100 µM and the TGI [6] was > 100 µM. The TGI [7] was > 100 µM, the TGI [8] was > 100 µM and the TGI [9] was > 100 µM. For the same compound, the TGI [10] was > 100 µM.
`C#Cc1ccccc1N1C(=O)C=CC1=O` was tested, and the TGI [1] was > 100 µM, the TGI [2] was > 100 µM and the TGI [3] was > 100 µM. For the same compound, the TGI [5] was > 100 µM, the TGI [6] was > 100 µM and the TGI [7] was > 100 µM. The TGI [8] was > 100 µM, the TGI [9] was > 100 µM and the TGI [10] was > 100 µM.
For `NC(N)=N/N=C/c1ccc(Br)cc1`, the GI50 [1] was 12.6 µM, the TGI [1] was > 100 µM and the GI50 [2] was 2.99 µM. For the same compound, the TGI [2] was 7.21 µM, the GI50 [3] was 3.72 µM and the TGI [3] was > 100 µM. The GI50 [4] was 3.42 µM, the TGI [4] was 15.5 µM and the GI50 [5] was 4.39 µM. For the same compound, the TGI [5] was 17.7 µM, the GI50 [6] was 11.6 µM and the TGI [6] was > 100 µM. It also gave a GI50 [7] of 6.75 µM, a TGI [7] of 30.5 µM and a GI50 [8] of 7.44 µM. The TGI [8] was 21.3 µM, the GI50 [9] was 5.36 µM and the TGI [9] was 17.8 µM. The GI50 [10] was 5.72 µM and the TGI [10] was 19.7 µM.
With `COC(=O)CCc1c(/C=C2\N=C(c3ccc[nH]3)C=C2OC)[nH]c(C)c1C(=O)OCc1ccccc1` the GI50 [1] was 0.0933 µM, the TGI [1] was > 58 µM and the GI50 [2] was 0.341 µM. It also gave a TGI [2] of 2.03 µM, a GI50 [3] of 0.252 µM and a TGI [3] of 3.39 µM. It also gave a GI50 [4] of 0.29 µM, a TGI [4] of 4.98 µM and a GI50 [5] of 0.653 µM. The TGI [5] was 2.88 µM, the GI50 [6] was 0.343 µM and the TGI [6] was 2.27 µM. For the same compound, the GI50 [7] was 1.67 µM, the TGI [7] was 12.6 µM and the GI50 [8] was 0.873 µM. The TGI [8] was 7.05 µM, the GI50 [9] was 0.216 µM and the TGI [9] was 0.491 µM. It also gave a GI50 [10] of 0.155 µM and a TGI [10] of 0.359 µM.
`CC(=O)OC1(C#N)CC2OC1C1NC21` (configuration not stated) was tested, and the TGI [1] was > 100 µM, the TGI [2] was > 100 µM and the TGI [3] was > 100 µM. For the same compound, the TGI [5] was > 100 µM, the TGI [6] was > 100 µM and the TGI [7] was > 100 µM. For the same compound, the TGI [8] was > 100 µM, the TGI [9] was > 100 µM and the TGI [10] was > 100 µM.
`OCC(O)C(OC1OC(CO)C(O)C(O)C1O)c1nn(-c2ccc(Cl)cc2)c2nc3cc(Cl)ccc3nc12` (configuration not stated) was tested, and the TGI [1] was > 100 µM, the TGI [3] was > 100 µM and the TGI [4] was > 100 µM. The TGI [5] was > 100 µM, the TGI [6] was > 100 µM and the TGI [7] was > 100 µM. For the same compound, the TGI [8] was > 100 µM, the TGI [9] was > 100 µM and the TGI [10] was > 100 µM.
